Assay results as given in publication PMC7993727, “Discovery of a novel AR/HDAC6 dual inhibitor for prostate cancer treatment” (Aging (Albany NY), 2021).

Legend:
LNCaP cells = assay: cell proliferation assay; format: cell-based; details: Homo sapiens, 72 h, read-out: IC50 values proliferation LNCaP
Procedure: (§1) After 7 days, cell viability was measured using a CellTiter 96® AQueous One Solution Cell Proliferation Assay kit (Promega).

VCaP cells = assay: cell proliferation assay; format: cell-based
Procedure: as §1

VCaP xenograft tumors = assay: castration-resistant VCaP xenograft mouse model; format: in vivo, NOD-SCID mice
Description: Figure 4 Zeta55 inhibits tumor growth in a CRPC xenograft model. (A) Percentage change in individual tumor volume of NOD-SCID mice with subcutaneous tumor xenograft grown from VCaP cells. NOD-SCID mice were castrated when the tumor volumes reached about 250mm^3 on 63 days after subcutaneous injection of VCaP cells. […]. Tumor sizes were monitored twice a week after treatment. (B) Mean tumor volumes (mm^3, +SEM) of NOD-SCID mice after treatment. (C) Mean body weight (g, +SEM) of NOD-SCID mice after treatment. *, P < 0.01 vs. vehicle.
The animal protocols used in this study were evaluated and approved by the Xiangya Hospital Medical ethics committee of Central South University. NOD-SCID mice were purchased from Hunan SJA Laboratory Animal Co. Ltd. with a quality license and raised in the SPF Laboratory Animal Room of the Department of Laboratory Zoology at Central South University. Briefly, VCaP cells were suspended in DMEM and Matrigel (BD) (1:1), and 5×10^6 cells/100 μl were subcutaneously injected into a 7-week-old male NOD-SCID mouse. […]. VCaP xenografts were measured twice per week in two dimensions (L and W) by a Vernier caliper, and the tumor volume was calculated as W^2×L/2 (mm^3).
Formalin-fixed, paraffin-embedded xenograft tissue sections were used for immunohistochemistry. TUNEL staining was performed according to the instructions in the TUNEL kit (KeyGEN). Tissue sections were deparaffinized and then boiled in 0.01 mol/L sodium citrate buffer (pH 6.0) in a kilowatt microwave oven for 10 minutes to retrieve cell antigens. Ki67 (Abcam, ab15580) or AR (SANTA, sc-7305) was used as the primary antibody. All tissue sections were immunohistochemically stained using the avidin-biotin-peroxidase method and were counterstained with hematoxylin. The staining intensities were evaluated at 100× magnification.

## N#Cc1ccc(N2C(=O)C3(CCC3)N(c3ccc(C(=O)NO)c(F)c3)C2=S)cc1C(F)(F)F [Zeta55]
LNCaP cells
  IC50: 8.36 µM
VCaP cells; Homo sapiens, VCaP, 168 h, read-out: IC50 values proliferation VCaP
  IC50: 2.47 µM
VCaP cells; VCaP cells
  anti-proliferation activity relative to MDV3100: 4.5 fold
VCaP xenograft tumors; 30 mg/kg/d oral, 49 days, compared with MDV3100 30 mg/kg/d
  antitumor activity: slightly better antitumor activity than MDV3100
VCaP xenograft tumors; 60 mg/kg/d oral, 49 days, n=6, castrated NOD-SCID mice
  tumors with tumor regression: 5 of 6
VCaP xenograft tumors; 30 and 60 mg/kg daily oral
  weights of mice during treatment: did not decrease significantly
VCaP xenograft tumors; immunohistochemical and Western blot analysis, compared to MDV3100 and vehicle
  expression of AR and PSA in treated tumors: decreased expression of AR and PSA
VCaP xenograft tumors; mouse, in vivo
  Ki-67 staining of tumor xenografts: inhibited tumor cell proliferation
  TUNEL staining of tumor xenografts: induced apoptosis
